Assay results as given in ChEMBL document CHEMBL3046248, “Synthesis and Fungicidal Activities of 2-Alkoxyiminoacetamides with a 4, 5-Dihydroisoxazole Ring” (1998).

Legend:
Type in all cases: functional
[1] = system: Pseudoperonospora cubensis; test: Fungicidal activity against Pseudoperonospora cubensis in cucumber plant assessed as cucumber downy mildew disease control at 125 ppm at 22 +/- 2 degC, 98% RH measured after 10 days
[2] = system: Pseudoperonospora cubensis; test: Fungicidal activity against Pseudoperonospora cubensis in cucumber plant assessed as cucumber downy mildew disease control at 31.3 ppm at 22 +/- 2 degC, 98% RH measured after 10 days
[3] = system: Pseudoperonospora cubensis; test: Fungicidal activity against Pseudoperonospora cubensis in cucumber plant assessed as cucumber downy mildew disease control at 500 ppm at 22 +/- 2 degC, 98% RH measured after 10 days
[4] = system: Pseudoperonospora cubensis; test: Fungicidal activity against Pseudoperonospora cubensis in cucumber plant assessed as cucumber downy mildew disease control at 7.8 ppm at 22 +/- 2 degC, 98% RH measured after 10 days

CC(C)O/N=C(\C#N)C(=O)NC1=NOC(C)C1 (stereo not given)
Activity [1]: 70%
Activity [2]: 70%

CC1CC(NC(=O)/C(C#N)=N/OCc2ccccc2)=NO1 (stereo not given)
Activity [3]: <70%

CO/N=C(\C#N)C(=O)NCc1cc(C)on1
Activity [2]: 70%

CO/N=C(\C#N)C(=O)NCc1ccsc1
Activity [3]: <70%

CO/N=C(\C#N)C(=O)NCC#N
Activity [1]: 70%
Activity [2]: 70%

C#CCNC(=O)/C(C#N)=N/OC
Activity [3]: <70%

C=CCNC(=O)/C(C#N)=N/OC
Activity [3]: <70%

N#C/C(=N\OCc1ccccc1)C(=O)NCCCl
Activity [3]: <70%

CNC(=O)/C(=N\OC)C(=O)NC1=NOC(C)(C)C1
Activity [3]: <70%

CO/N=C(/C(=O)NC1=NOC(C)(C)C1)C(=O)N(C)C
Activity [3]: <70%

CO/N=C(\C(=N)OC)C(=O)NC1=NOC(C)(C)C1
Activity [3]: <70%

CO/N=C(\C(=N)SC)C(=O)NC1=NOC(C)(C)C1
Activity [1]: 70%

CO/N=C(C(=O)NC1=NOC(C)(C)C1)\C(N)=N\O
Activity [2]: 70%

CO/N=C(\C#N)C(=O)NC1=NOC(C)(C)C1
Activity [4]: 70%

CO/N=C(C(=O)NC1=NOC(C)C1)\C(N)=N\O (stereo not given)
Activity [2]: 70%

CCC1(C)CC(NC(=O)C(=N/OC)/C(N)=N/O)=NO1 (stereo not given)
Activity [2]: 70%

CCO/N=C(C(=O)NC1=NOC(C)(C)C1)\C(N)=N\O
Activity [2]: 70%

CC1(C)CC(NC(=O)C(=N/OCc2ccccc2)/C(N)=N/O)=NO1
Activity [3]: <70%

CO/N=C(\C#N)C(=O)NCC1=NOC(c2ccccc2)C1 (stereo not given)
Activity [1]: 70%

CO/N=C(\C#N)C(=O)NC1=NOC(C)C1 (stereo not given)
Activity [2]: 70%

CO/N=C(\C#N)C(=O)NC1=NOC(c2ccccc2)C1 (stereo not given)
Activity [3]: <70%

CCO/N=C(\C#N)C(=O)NCC1=NOC(C)C1 (stereo not given)
Activity [2]: 70%

CC(C)O/N=C(\C#N)C(=O)NCC1=NOC(C)C1 (stereo not given)
Activity [1]: 70%

CC1CC(CNC(=O)/C(C#N)=N/OCc2ccccc2)=NO1 (stereo not given)
Activity [2]: 70%

CCO/N=C(\C#N)C(=O)NC1=NOC(C)C1 (stereo not given)
Activity [1]: 70%
Activity [2]: 70%

CO/N=C(/C(=O)NC1=NOC(C)(C)C1)C(=O)OC
Activity [3]: <70%

CO/N=C(\C(N)=O)C(=O)NC1=NOC(C)(C)C1
Activity [3]: <70%

CO/N=C(\C#N)C(=O)NC1=NOC(C(C)(C)C)C1 (stereo not given)
Activity [1]: 70%

CO/N=C(\C#N)C(=O)NCC1=NOC(C(C)(C)C)C1 (stereo not given)
Activity [2]: 70%

CO/N=C(\C#N)C(=O)NCC1=NOC(C)C1 (stereo not given)
Activity [4]: 70%

CO/N=C(\C#N)C(=O)NCc1cccnc1
Activity [2]: 70%

CO/N=C(\C#N)C(=O)NCC1=NOC(C)(C)C1
Activity [4]: 70%
